Test results as given in PMC11535186, “Exploring the Anti-Inflammatory Potential of Ajuga integrifolia Leaves Extract: In Vitro Dual Inhibition of Cyclooxygenase and Lipoxygenase Enzymes” (Advances in Pharmacological and Pharmaceutical Sciences, 2024).

Target: 5-LOX (Glycine max, UniProt P08170)
Assay: 5-LOX inhibitory assay (linoleic acid substrate, 234 nm)
Format: biochemical
Conditions: read-out: % inhibition 5-LOX
Protocol: The inhibition of LOX was evaluated according to the method described by Malterud with slight modifications. A 100 μL enzyme solution was prepared in boric acid buffer (0.2 M; pH 9.0). To assess the inhibitory effect, 25 μL of each test extract (20, 40, 60, 80, and 100 μg/mL) was added to the enzyme solution. The mixture was then incubated at room temperature for 3 min. […] IC50 values were calculated by regression analysis using Microsoft Excel involving five concentrations. The percentage inhibition of enzyme activity and IC50 values are presented as the mean values ± SD.

Chain of 5-LOX (P08170 whole entry): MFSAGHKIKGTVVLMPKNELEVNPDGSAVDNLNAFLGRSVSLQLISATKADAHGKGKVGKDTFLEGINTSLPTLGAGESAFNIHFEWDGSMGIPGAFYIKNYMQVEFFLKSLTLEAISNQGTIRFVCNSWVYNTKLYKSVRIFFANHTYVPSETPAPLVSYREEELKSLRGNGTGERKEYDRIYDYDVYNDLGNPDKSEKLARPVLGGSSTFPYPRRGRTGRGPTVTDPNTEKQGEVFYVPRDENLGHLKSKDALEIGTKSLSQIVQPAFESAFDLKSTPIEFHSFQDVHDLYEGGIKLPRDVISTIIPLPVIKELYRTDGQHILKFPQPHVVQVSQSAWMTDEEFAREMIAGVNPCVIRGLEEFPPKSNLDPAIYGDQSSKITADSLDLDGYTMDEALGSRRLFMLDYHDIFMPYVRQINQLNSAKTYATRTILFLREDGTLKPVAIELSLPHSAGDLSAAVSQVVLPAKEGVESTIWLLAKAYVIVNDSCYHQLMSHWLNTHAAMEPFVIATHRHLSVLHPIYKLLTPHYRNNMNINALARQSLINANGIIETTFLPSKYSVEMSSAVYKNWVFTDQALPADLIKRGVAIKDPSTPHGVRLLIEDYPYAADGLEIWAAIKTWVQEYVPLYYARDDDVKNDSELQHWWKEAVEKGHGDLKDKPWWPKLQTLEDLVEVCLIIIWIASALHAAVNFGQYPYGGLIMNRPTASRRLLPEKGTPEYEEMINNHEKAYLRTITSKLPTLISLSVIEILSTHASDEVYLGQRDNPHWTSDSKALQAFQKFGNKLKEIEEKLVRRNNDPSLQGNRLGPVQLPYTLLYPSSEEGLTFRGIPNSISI

CC(c1cc2ccccc2s1)N(O)C(N)=O (centres unmarked) [Zileuton]
inhibition at 20 µg/mL: 26.1%
inhibition at 40 µg/mL: 47%
inhibition at 60 µg/mL: 51.9%
inhibition at 80 µg/mL: 64.2%
inhibition at 100 µg/mL: 70.4%
